The target of assay [1] is BACE 1 (beta secretase enzyme) (Homo sapiens (Human), UniProt P56817). Description: In vitro enzymatic BACE FRET assay. Type of assay: biochemical. To be noted: average IC50. The procedure:
In Vitro Enzymatic BACE FRET (Fluorescence Resonance Energy Transfer) Assay
The assay buffer used in this screen is 0.05 M acetate, pH 4.2, 10% DMSO final, 100 uM genapol (which is a nonionic detergent, below its Critical Micelle Concentration). […] This assay is effectively started by the addition of FRET substrate (50 nM) and the combination is incubated for one hour. The FRET assay is terminated with by addition of Tris buffer, which raises the pH to neutrality, and the fluorescence is determined. The FRET substrate is a peptide with commercially available fluorophore and quencher, on opposite sides of the BACE cleavage site. Proteolytic cleavage of the FRET substrate releases quenching of fluorescence (excitation […] and […]).

For assay [2], the system named is Aβ40 in conditioned medium of cells stably expressing Amyloid Precursor Protein (APP). Description: In vitro BACE cell-based assay (HEK cell assay, Aβ40 sandwich ELISA). To be noted: average IC50, Aβ40, 24 h incubation. The procedure:
In Vitro BACE Cell-Based Assay
The cell-based assay measures inhibition or reduction of Aβ40 in conditioned medium of test compound treated cells expressing amyloid precursor protein.
Cells stably expressing Amyloid Precursor Protein (APP) were plated at a density of 40K cells/well in 96 well plates (Costar). The cells were cultivated for 24 hours at 37° C. and 5% CO2 in DMEM supplemented with 10% FBS. The test compounds were then added to cells in 10-point dose response concentrations with the starting concentration being either 100 μM or 10 μM. The compounds were diluted from stock solutions in DMSO and the final DMSO concentration of the test compounds on cells was 0.1%. After 24 h of incubation with the test compounds the supernatant conditioned media was collected and the Aβ 40 levels were determined using a sandwich ELISA. The IC50 of the compound was calculated from the percent of control or percent inhibition of Aβ 40 as a function of the concentration of the test compound.
The sandwich ELISA to detect Aβ 40 was performed in 96 well microtiter plates, which were pre-treated with goat anti-rabbit IgG (Pierce). The capture and detecting antibody pair that were used to detect Aβ 40 from cell supernatants were affinity purified pAb40 (Biosource) and biotinylated 6E10 (Signet Labs Inc.), respectively. The optimal concentration for the pAb40 antibody was 3 μg/ml in Superblock/TBS (Pierce) that was supplemented with 0.05% Tween 20 (Sigma).
Cellular supernatants were incubated with the capture antibody for 3 h at 4° C., followed by 3 wash steps in TBS-tween (0.05%). The detecting antibody incubation was for 2 h at 4° C., again followed by the wash steps as described previously. The final readout of the ELISA is Time-Resolved Fluorescence (counts per minute) using Delfia reagents Streptavidin-Europium and Enhancement solutions (Perkin Elmer) and the Victor 2 multilabel counter (Perkin Elmer).
On the technique in general: An ELISA detects its analyte on a solid surface through an enzyme-linked reagent.

A further assay concerns the target Cathepsin D (Homo sapiens (Human), UniProt P07339). As to the kind of experiment: In vitro enzymatic Cat D (Cathepsin D) FRET assay. In kind it is biochemical. To be noted: average IC50. On the procedure: In Vitro Enzymatic Cat D (Cathepsin D) FRET (Fluorescence Resonance Energy Transfer) Assay
Recombinant CathepsinD was expressed in CHO cells. The assay buffer for CathepsinD is 0.05 M citrate pH 3.5, 10% DMSO final, 5 mM CHAPS. […] The assays are effectively started by the addition of different FRET substrates (20 nM for CathepsinD) and the combination is incubated for one hour. The FRET assay is terminated with by addition of Tris buffer, which raises the pH to neutrality, and the fluorescence is determined. The FRET substrate is a peptide with commercially available fluorophore and quencher, on opposite sides of the BACE cleavage site. […] Proteolytic cleavage of the FRET substrate releases quenching of fluorescence (CathepsinD excitation 500 nm and emission 580 nm).

Drawing on patent US9296759B2, “Amino-oxazine and amino-dihydrothiazine compounds as beta-secretase modulators and methods of use” (AMGEN INC., priority 2011, dated 2016), this text covers IC50 for 17 compounds.

Cathepsin D, sequence (P07339 65-412, species assumed): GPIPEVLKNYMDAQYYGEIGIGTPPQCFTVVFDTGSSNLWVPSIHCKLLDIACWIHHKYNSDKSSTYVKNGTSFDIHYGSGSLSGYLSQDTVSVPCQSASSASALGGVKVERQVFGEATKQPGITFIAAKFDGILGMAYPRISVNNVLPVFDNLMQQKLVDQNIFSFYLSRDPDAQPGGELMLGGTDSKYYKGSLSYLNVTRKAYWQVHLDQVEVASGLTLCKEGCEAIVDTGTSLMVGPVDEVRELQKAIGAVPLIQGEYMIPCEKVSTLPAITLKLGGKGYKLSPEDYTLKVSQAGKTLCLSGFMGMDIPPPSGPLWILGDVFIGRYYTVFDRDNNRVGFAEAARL
BACE 1 (beta secretase enzyme), sequence (P56817 46-501): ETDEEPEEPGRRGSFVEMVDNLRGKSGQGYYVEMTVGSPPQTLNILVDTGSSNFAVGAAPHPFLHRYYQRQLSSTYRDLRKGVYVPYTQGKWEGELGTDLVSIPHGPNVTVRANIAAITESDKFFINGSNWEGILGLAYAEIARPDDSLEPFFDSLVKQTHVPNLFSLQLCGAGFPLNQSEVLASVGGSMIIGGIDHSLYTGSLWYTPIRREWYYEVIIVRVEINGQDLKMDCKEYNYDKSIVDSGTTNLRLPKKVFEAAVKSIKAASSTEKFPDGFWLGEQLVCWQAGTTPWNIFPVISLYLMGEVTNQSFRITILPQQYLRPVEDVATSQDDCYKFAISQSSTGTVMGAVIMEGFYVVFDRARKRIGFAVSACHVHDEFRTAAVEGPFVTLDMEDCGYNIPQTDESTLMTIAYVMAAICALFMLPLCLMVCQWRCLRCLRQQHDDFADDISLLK

With `CCOc1cccnc1Nc1ccc2c(c1)[C@@]1(CCOC(N)=N1)c1cc(OC)cc(F)c1O2` [Example 31, (4S)-N~2~′-(3-ethoxy-2-pyridinyl)-5′-fluoro-7′-methoxy-5,6-dihydrospiro[1,3-oxazine-4,9′-xanthene]-2,2′-diamine], the half-inhibitory concentration (IC50) in assay [1] stood at 69.6 nM; in assay [2] it was 64.2 nM; on Cathepsin D it was 400000 nM.
For `CCOc1cccnc1Nc1ccc2c(c1)[C@@]1(CCSC(N)=N1)c1cc(OC)cc(F)c1O2` [Example 33, (4S)-N~2~′-(3-ethoxy-2-pyridinyl)-5′-fluoro-7′-methoxy-5,6-dihydrospiro[1,3-thiazine-4,9′-xanthene]-2,2′-diamine], in that order: 48.6 nM, 65.9 nM and 262000 nM.
Take `NC1=N[C@@]2(CCO1)c1cc(NC(=O)c3ccc(Cl)cn3)ccc1Oc1ncc(C3=CCCOC3)cc12` [Example 35, N-((5S)-2′-amino-3-(5,6-dihydro-2H-pyran-3-yl)-5′,6′-dihydrospiro[chromeno[2,3-b]pyridine-5,4′-[1,3]oxazin]-7-yl)-5-chloro-2-pyridinecarboxamide]: the IC50 in assay [1] was 5.1 nM; in assay [2] (Homo sapiens, HEK293), 3.3 nM; at Cathepsin D, more than 1650 nM.
Take `NC1=N[C@@]2(CCO1)c1cc(NC(=O)c3ccc(Cl)cn3)ccc1Oc1ncccc12` [Example 36, N-((5S)-2′-amino-5′,6′-dihydrospiro[chromeno[2,3-b]pyridine-5,4′-[1,3]oxazin]-7-yl)-5-chloro-2-pyridinecarboxamide]: the concentration for half-maximal inhibition (IC50) is 45.1 nM in assay [1]; 14.8 nM in assay [2] (Homo sapiens, HEK293); more than 400000 nM at Cathepsin D.
For `NC1=N[C@@]2(CCO1)c1cc(NC(=O)c3ccc(Cl)cc3F)ccc1Oc1ncc(Br)cc12` [Example 37, N-((5S)-2′-amino-3-bromo-5′,6′-dihydrospiro[chromeno[2,3-b]pyridine-5,4′-[1,3]oxazin]-7-yl)-4-chloro-2-fluorobenzamide], in that order: 120 nM, 125 nM and more than 400000 nM.
Take `NC1=N[C@@]2(CCO1)c1cc(NC(=O)c3cnc(O)cn3)ccc1Oc1ncc(Br)cc12` [Example 43, N-((5S)-2′-amino-3-bromo-5′,6′-dihydrospiro[chromeno[2,3-b]pyridine-5,4′-[1,3]oxazin]-7-yl)-5-hydroxy-2-pyrazinecarboxamide]: the IC50 in assay [1] is 113 nM; in assay [2] (Homo sapiens, HEK293), 1660 nM; at Cathepsin D, more than 4940 nM.
The corresponding values for `COc1cnc(C(=O)Nc2ccc3c(c2)[C@@]2(CCOC(N)=N2)c2cc(Br)cnc2O3)cn1` [Example 44, N-((5S)-2′-amino-3-bromo-5′,6′-dihydrospiro[chromeno[2,3-b]pyridine-5,4′-[1,3]oxazin]-7-yl)-5-methoxy-2-pyrazinecarboxamide] are 47.6 nM, 11 nM and more than 1650 nM.
For `N#Cc1ccc(C(=O)Nc2ccc3c(c2)[C@@]2(CCOC(N)=N2)c2cc(Cl)nc(F)c2O3)nc1` [Example 46, N-((5S)-2′-amino-3-chloro-1-fluoro-5′,6′-dihydrospiro[chromeno[2,3-c]pyridine-5,4′-[1,3]oxazin]-7-yl)-5-cyano-2-pyridinecarboxamide], the IC50 in assay [1] is 7 nM; in assay [2] (Homo sapiens, HEK293), 23 nM; at Cathepsin D, more than 400000 nM.
For `NC1=N[C@@]2(CCO1)c1cc(NC(=O)c3cnc(Cl)cn3)ccc1Oc1c2cc(Cl)nc1F` [Example 49, N-((5S)-2′-amino-3-chloro-1-fluoro-5′,6′-dihydrospiro[chromeno[2,3-c]pyridine-5,4′-[1,3]oxazin]-7-yl)-5-chloro-2-pyrazinecarboxamide], the half-maximal inhibitory concentration (IC50) is 16.1 nM in assay [1]; 184 nM in assay [2] (Homo sapiens, HEK293); 323000 nM at Cathepsin D.
For `COc1cc(F)c2c(c1)[C@]1(CCSC(N)=N1)c1cc(NC(=O)c3cnc(OC)cn3)ccc1O2` [Example 50, N-((4S)-2-amino-5′-fluoro-7′-methoxy-5,6-dihydrospiro[1,3-thiazine-4,9′-xanthen]-2′-yl)-5-methoxy-2-pyrazinecarboxamide], the half-maximal inhibitory concentration (IC50) in assay [1] was 40.5 nM; in assay [2] (Homo sapiens, HEK293) it was 46.5 nM; at Cathepsin D, more than 400000 nM.
`N#Cc1ccc(C(=O)Nc2ccc3c(c2)[C@@]2(CCOC(N)=N2)c2cc(C4=CCCOC4)nc(F)c2O3)nc1` [Example 52, N-((5S)-2′-amino-3-(5,6-dihydro-2H-pyran-3-yl)-1-fluoro-5′,6′-dihydrospiro[chromeno[2,3-c]pyridine-5,4′-[1,3]oxazin]-7-yl)-5-cyano-2-pyridinecarboxamide]: the IC50 in assay [1] came out at 2 nM; in assay [2] (Homo sapiens, HEK293), 0.5 nM; at Cathepsin D, 132000 nM.
The corresponding values for `COc1nc(C2CC2)cc2c1Oc1ccc(NC(=O)c3ccc(Cl)cn3)cc1[C@@]21CCOC(N)=N1` [Example 53, N-((5S)-2′-amino-3-cyclopropyl-1-methoxy-5′,6′-dihydrospiro[chromeno[2,3-c]pyridine-5,4′-[1,3]oxazin]-7-yl)-5-chloro-2-pyridinecarboxamide] are 12.9 nM, 22.7 nM and more than 400000 nM.
For `COc1cnc(C(=O)Nc2ccc3c(c2)[C@]2(CCSC(N)=N2)c2cc(Cl)nc(F)c2O3)cn1` [Example 55, N-((5R)-2′-amino-3-chloro-1-fluoro-5′,6′-dihydrospiro[chromeno[2,3-c]pyridine-5,4′-[1,3]thiazin]-7-yl)-5-methoxy-2-pyrazinecarboxamide], in that order: 913 nM, 3090 nM and 69900 nM.
The corresponding values for `COc1cnc(C(=O)Nc2ccc3c(c2)[C@@]2(CCSC(N)=N2)c2cc(Cl)nc(F)c2O3)cn1` [Example 56, N-((5S)-2′-amino-3-chloro-1-fluoro-5′,6′-dihydrospiro[chromeno[2,3-c]pyridine-5,4′-[1,3]thiazin]-7-yl)-5-methoxy-2-pyrazinecarboxamide] are 6.2 nM, 167 nM and more than 400000 nM.
In the case of `COc1cc(F)c2c(c1)[C@]1(CCOC(N)=N1)c1cc(Nc3ncccc3OCc3ccccc3)ccc1O2` [Example 57, (4S)-N~2~′-(3-(benzyloxy)-2-pyridinyl)-5′-fluoro-7′-methoxy-5,6-dihydrospiro[1,3-oxazine-4,9′-xanthene]-2,2′-diamine], the IC50 in assay [1] worked out at 7290 nM; in assay [2], 3510 nM; at Cathepsin D it was 400000 nM.
Turning to `COc1cnc(C(=O)Nc2ccc3c(c2)[C@@]2(CCSC(N)=N2)c2cc(C4=CCOCC4)cc(F)c2O3)cn1` [Example 60, N-((4S)-2-amino-7′-(3,6-dihydro-2H-pyran-4-yl)-5′-fluoro-5,6-dihydrospiro[1,3-thiazine-4,9′-xanthen]-2′-yl)-5-methoxy-2-pyrazinecarboxamide], the half-inhibitory concentration (IC50) in assay [1] was found to be 6.2 nM; in assay [2] (Homo sapiens, HEK293) it was 4.3 nM; on Cathepsin D, 174000 nM.
On to `COc1nc(C2=CCOCC2)cc2c1Oc1ccc(NC(=O)c3ccc(Cl)cn3)cc1[C@@]21CCOC(N)=N1` [Example 62, N-((5S)-2′-amino-3-(3,6-dihydro-2H-pyran-4-yl)-1-methoxy-5′,6′-dihydrospiro[chromeno[2,3-c]pyridine-5,4′-[1,3]oxazin]-7-yl)-5-chloro-2-pyridinecarboxamide], for which the half-maximal inhibitory concentration (IC50) in assay [1] came to 7 nM; in assay [2] (Homo sapiens, HEK293), 3.6 nM; on Cathepsin D, 400000 nM.

For orientation: IC50 means the concentration needed to halve the response being measured.
